Patent US20080249081A1, “COMPOUNDS FOR THE TREATMENT OF PAIN AND SCREENING METHODS THEREFOR” (priority 2006, published 2008)
pEC50: −log10 of the molar value.

What was measured:
human MrgX2 receptor = target: T1, human MrgX2 receptor (Homo sapiens, UniProt Q96LB1); experiment: Receptor Selection and Amplification Technology (R-SAT) functional assay, transfected NIH3T3 cells; assay type: cell-based; settings: for Human-MrgX2 Eff(%): percent maximal activation relative to STIA
T1 construct: expressed in transfected cells; host or cells: NIH3T3
T1 sequence (Q96LB1 1-330): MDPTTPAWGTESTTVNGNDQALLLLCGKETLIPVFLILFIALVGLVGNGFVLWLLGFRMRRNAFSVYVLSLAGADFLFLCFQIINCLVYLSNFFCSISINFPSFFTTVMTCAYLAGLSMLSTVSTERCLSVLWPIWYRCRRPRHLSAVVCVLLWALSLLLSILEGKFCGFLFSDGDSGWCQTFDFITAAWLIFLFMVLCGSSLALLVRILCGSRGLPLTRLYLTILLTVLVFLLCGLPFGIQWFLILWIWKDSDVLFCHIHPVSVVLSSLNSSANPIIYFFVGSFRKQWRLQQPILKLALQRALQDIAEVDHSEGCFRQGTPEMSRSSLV
Description: (§1) The functional receptor assay, Receptor Selection and Amplification Technology (R-SAT), was used to investigate the pharmacological properties of test compounds on MRGX1 or MRGX2 receptors. R-SAT is disclosed in U.S. Pat. Nos. 5,707,798, 5,912,132, and 5,955,281, each of which is incorporated by reference herein in its entirety, including any drawings.
(§2) Briefly, NIH3T3 cells were grown in 96-well tissue culture plates to 70-80% confluence. Cells were transfected for 16-20 h with plasmid DNAs using Polyfect (Qiagen Inc.) and the manufacturer's protocols. R-SATs were generally performed with 4 ng/well of receptor and 20 ng/well of β-galactosidase plasmid DNA. The human MrgX1, simian MrgX1, human MrgX2 and simian MrgX2 receptor genes were amplified by PCR from genomic DNA using oligodeoxynucleotide primers as described in U.S. patent application Ser. No. 11/359,209, which is incorporated by reference herein in its entirety, including any drawings. For large-scale transfections, cells were transfected for 16-20 h, then trypsinized and frozen in DMSO. Frozen cells were later thawed, plated at ˜10,000 cells per well of a 96 half-area well plate that contained test compound. With both methods, cells were then grown in a humidified atmosphere with 5% ambient CO2 for five days. The medium was then removed from the plates and marker gene activity was measured by the addition of the β-galactosidase substrate o-nitrophenyl β-D-galactopyranoside (ONPG, in PBS with 0.5% NP-40). The resulting […] reaction was measured in a spectrophotometric plate reader (Titertek Inc.) at 420 nm. All data were analyzed using the computer program XLFit (IDBSm). Efficacy is defined as the percent maximal activation compared to activation by a control compound (BAM22 in the case of human or simian MRGX1, STIA or Cortistatin-14 in the case of human or simian MRGX2). pEC50 is the negative of log(EC50), where EC50 is the calculated molar concentration of test compound that produces 50% of maximum activation.
(§3) Efficacy is reported relative to the ligands Bam22 for MrgX1 and STIA for MrgX2.

human MrgX1 receptor [1] = target: T2, human MrgX1 receptor (Homo sapiens, UniProt Q96LB2); experiment: as above; assay type: cell-based; design: expressed in transfected cells; host or cells: NIH3T3; settings: for Human-MrgX1 pEC50 / pEC50: pEC50 = negative log of molar EC50; for Human-MrgX1 Eff(%): percent maximal activation relative to Bam22
T2 sequence (Q96LB2 whole entry): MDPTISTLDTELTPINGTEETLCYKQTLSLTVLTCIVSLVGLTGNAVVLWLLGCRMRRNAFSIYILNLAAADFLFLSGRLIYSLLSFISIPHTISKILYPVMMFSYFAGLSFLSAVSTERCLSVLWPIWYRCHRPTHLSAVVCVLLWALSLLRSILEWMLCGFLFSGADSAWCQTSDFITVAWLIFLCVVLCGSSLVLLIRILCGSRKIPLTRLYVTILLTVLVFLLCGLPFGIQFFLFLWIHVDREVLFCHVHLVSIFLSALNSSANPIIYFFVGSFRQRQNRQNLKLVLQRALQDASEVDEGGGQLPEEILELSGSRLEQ
Description: as §1, §2, §3

simian MrgX1 receptor = simian MrgX1 receptor (Macaca mulatta, UniProt A0A5F7ZSN8); experiment: as above; assay type: cell-based, rhesus monkey; settings: percent maximal activation relative to Bam22, read-out: Monkey-MrgX1 Eff(%)
Chain of simian MrgX1 receptor (A0A5F7ZSN8 1-322): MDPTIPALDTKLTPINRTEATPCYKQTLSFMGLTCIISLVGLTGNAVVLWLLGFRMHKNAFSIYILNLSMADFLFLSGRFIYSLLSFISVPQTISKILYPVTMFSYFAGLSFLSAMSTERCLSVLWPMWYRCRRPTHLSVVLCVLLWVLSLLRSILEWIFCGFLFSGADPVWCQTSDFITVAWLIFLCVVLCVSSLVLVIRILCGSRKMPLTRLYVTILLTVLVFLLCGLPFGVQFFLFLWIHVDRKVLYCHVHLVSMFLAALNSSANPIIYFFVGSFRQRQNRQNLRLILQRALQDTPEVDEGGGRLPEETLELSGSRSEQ
Description: as §1, §2, §3

simian MrgX2 receptor = target: T3, simian MrgX2 receptor (Macaca mulatta, UniProt Q4QXU5); experiment: as above; assay type: cell-based, rhesus monkey; settings: for Monkey-MrgX2 Eff(%): percent maximal activation relative to STIA
T3 construct: expressed in transfected cells; host or cells: NIH3T3
T3 sequence (Q4QXU5 whole entry): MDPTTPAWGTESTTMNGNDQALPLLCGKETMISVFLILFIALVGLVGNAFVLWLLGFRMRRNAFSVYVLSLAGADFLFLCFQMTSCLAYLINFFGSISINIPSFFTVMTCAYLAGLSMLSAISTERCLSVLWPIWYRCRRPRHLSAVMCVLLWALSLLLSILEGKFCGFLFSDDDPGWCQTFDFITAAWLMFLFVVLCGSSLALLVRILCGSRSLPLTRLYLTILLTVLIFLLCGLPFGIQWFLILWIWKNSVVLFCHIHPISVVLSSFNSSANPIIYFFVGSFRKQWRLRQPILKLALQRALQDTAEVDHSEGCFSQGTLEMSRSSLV
Description: as §1, §2, §3

human MrgX1 receptor [2] = target: T2, human MrgX1 receptor; experiment: Intracellular calcium mobilization (Fura-2) in transfected cells; assay type: cell-based; design: expressed in transfected cells; settings: for MrgX1 pEC50: human MrgX1; for MrgX1 Eff %: normalized to response to BAM22 (100%)
Description: 1. CHO-K1 cells transfected with human MrgX1, simian MrgX1, human MrgX2 and simian MrgX2 receptors or a control receptor at a density 1-3×10^6 cells/mL were washed with phosphate-buffered saline.
2. Cells were loaded with 2 μM Fura-2 and analyzed with respect to the rise in intracellular calcium in the presence or absence of varying concentration of test compound.
3. The response was compared to that elicited by the application of the standard reference ligands BAM22 or Cortistatin-14 at 100 nM.
4. Intracellular free calcium concentrations were calculated using the formula:
[formula] • where Kd for Fura-2 is 224 nM, Fmax is the fluorescence in the presence of 0.04% Triton-X100 and Fmin is the fluorescence obtained after the addition of 5 mM EGTA in 30 mM Tris-HCl, pH7.4.

Row | Human-MrgX2 pEC50 (human MrgX2 receptor) | Human-MrgX2 Eff(%) (human MrgX2 receptor) | Human-MrgX1 pEC50 (human MrgX1 receptor [1]) | Human-MrgX1 Eff(%) (human MrgX1 receptor [1]) | Emax (simian MrgX1 receptor) [%] | Monkey-MrgX2 Eff(%) (simian MrgX2 receptor) | MrgX1 pEC50 (human MrgX1 receptor [2]) | MrgX1 Eff % (human MrgX1 receptor [2]) [%] | pEC50 (human MrgX1 receptor [1]) | Monkey-MrgX2 pEC50 (simian MrgX2 receptor) | Compound
1 | nr | 6 | 5.6 | 73 | – | – | – | – | – | – | N=C(N)NCCCC(C(N)=O)n1c(-c2cccc(Oc3ccccc3)c2)nc2cc(C(=O)Nc3nccs3)ccc21 (stereo not drawn) [Compound 31]
2 | nr | 11 | 6.2 | 150 | – | – | – | – | – | – | CCCCNC(=O)c1ccc2c(c1)nc(-c1cccc(Oc3ccccc3)c1)n2C(CCCNC(=N)N)C(N)=O (stereo not drawn) [Compound 30]

Continued, compound first:

Row | Compound | Human-MrgX2 pEC50 (human MrgX2 receptor) | Human-MrgX2 Eff(%) (human MrgX2 receptor) | Human-MrgX1 pEC50 (human MrgX1 receptor [1]) | Human-MrgX1 Eff(%) (human MrgX1 receptor [1]) | Emax (simian MrgX1 receptor) [%] | Monkey-MrgX2 Eff(%) (simian MrgX2 receptor) | MrgX1 pEC50 (human MrgX1 receptor [2]) | MrgX1 Eff % (human MrgX1 receptor [2]) [%] | pEC50 (human MrgX1 receptor [1]) | Monkey-MrgX2 pEC50 (simian MrgX2 receptor)
3 | Cc1cccc(N2CCN(C(=O)c3ccc4c(c3)nc(-c3cccc(Oc5ccccc5)c3)n4[C@@H](CCCNC(=N)N)C(N)=O)CC2C)c1 (stereo partly drawn) [Compound 2, (α^1R)-α-[3-[(aminoiminomethyl)amino]propyl]-5-[[3-methyl-4-(3-methylphenyl)-1-piperazinyl]carbonyl]-2-(3-phenoxyphenyl)-1H-benzimidazole-1-acetamide] | nr | 17 | – | 220 | 316 | 22 | 7.6 | 92 | 6.20 | –
4 | COc1ccc(NC(=O)c2ccc3c(c2)nc(-c2cccc(Oc4ccccc4)c2)n3C(CCCNC(=N)N)C(N)=O)cc1 (stereo not drawn) [Compound 27] | nr | 4 | 6.1 | 133 | – | – | – | – | – | –
5 | N=C(N)NCCC[C@@H](C(N)=O)n1c(-c2cccc(Oc3ccccc3)c2)nc2cc(C(=O)NCCc3ccccn3)ccc21 [Compound 3, (α^1R)-α-[3-[(aminoiminomethyl)amino]propyl]-2-(3-phenoxyphenyl)-5-[[[2-(2-pyridinyl)ethyl]amino]carbonyl]-1H-benzimidazole-1-acetamide] | nr | 4 | – | 176 | 160 | 4 | 6.4 | 106 | 6.80 | –
6 | CN(CCc1ccccn1)C(=O)c1ccc2c(c1)nc(-c1cccc(Oc3ccccc3)c1)n2[C@@H](CCCNC(=N)N)C(N)=O [Compound 4, (α^1R)-α-[3-[(aminoiminomethyl)amino]propyl]-5-[[methyl[2-(2-pyridinyl)ethyl]amino]carbonyl]-2-(3-phenoxyphenyl)-1H-benzimidazole-1-acetamide] | nr | 46 | – | 325 | 107 | 18 | 6.7 | 112 | 6.00 | –
7 | N=C(N)NCCC[C@@H](C(N)=O)n1c(-c2cccc(Oc3ccccc3)c2)nc2cc(C(=O)N3CCN(c4ccc(F)cc4)CC3)ccc21 [Compound 1, (α^1R)-α-[3-[(aminoiminomethyl)amino]propyl]-5-[[4-(4-fluorophenyl)-1-piperazinyl]carbonyl]-2-(3-phenoxyphenyl)-1H-benzimidazole-1-acetamide] | nr | −1 | – | 146 | 148 | 25 | 6.6 | 88 | 6.00 | <4.5
